Data published in PubChem BioAssay AID292 (DTP/NCI, 2004).
Where “and” joins values, the source holds several entries; their conditions need not be identical. Identical values can stand only once. Toxic doses and inconclusive results are not listed.

Tested on: B6C3F1 mice, ip Sarcoma M5076, median survival T/C
Assay: NCI In Vivo Anticancer Drug Screen. Data for tumor model Sarcoma M5076 (intraperitoneal) in B6C3F1 mice
Conditions: endpoint: median survival time, schedule: Q04DX004 (ip), higher = longer survival
How it was run: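 Tumour cells were transplanted into mice, compound or vehicle was given, survival of both groups was followed, and the treated figure was expressed over the control figure.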

[1] = dose: 25.0 mg/kg/injection, vehicle: saline with Tween-80
[2] = dose: 50.0 mg/kg/injection, vehicle: saline with Tween-80
[3] = dose: 200.0 mg/kg/injection, vehicle: saline with Tween-80
[4] = dose: 100.0 mg/kg/injection, vehicle: saline with Tween-80
[5] = dose: 400.0 mg/kg/injection, vehicle: saline with Tween-80

Q: What does the source list for C=C(C)C1C2CC3(C)C4(CO4)C4OC4C3(O)C1C(=O)O2 (configuration not stated)?
A: T/C (dose: 0.25 mg/kg/injection, vehicle: Klucel (hydroxypropylcellulose) (HPC)): 96 % of control; T/C (dose: 0.5 mg/kg/injection, vehicle: Klucel (hydroxypropylcellulose) (HPC)): 112 % of control; T/C (dose: 1.0 mg/kg/injection, vehicle: Klucel (hydroxypropylcellulose) (HPC)): 100 % of control

Q: With Nc1nc(=O)nc2[nH]c3c4cccc5cccc(c3nc12)c54 as the compound, how does the T/C (dose: 37.5 mg/kg/injection, vehicle: saline with Tween-80) read?
A: 101 % of control

Q: And the T/C (dose: 75.0 mg/kg/injection, vehicle: saline with Tween-80)?
A: 95 % of control

Q: What about the T/C (dose: 150.0 mg/kg/injection, vehicle: saline with Tween-80) of the same compound?
A: 98 % of control

Q: And the T/C (dose: 300.0 mg/kg/injection, vehicle: saline with Tween-80)?
A: 90 % of control

Q: What about the T/C (dose: 600.0 mg/kg/injection, vehicle: saline with Tween-80) of the same compound?
A: 94 % of control

Q: COC1C(N)C(OC2C(Oc3cccc4c(O)c5c(=O)oc6ccc(C)c7c(=O)oc(c34)c5c67)OC(C)C(O)C2(C)O)OC(C)C1O (configuration not stated) was tested. Which T/C (dose: 2.5 mg/kg/injection, vehicle: other) did it give?
A: 153 % of control

Q: What about the T/C (dose: 10.0 mg/kg/injection, vehicle: DMSO) of the same compound?
A: 246 % of control

Q: What about the T/C (dose: 10.0 mg/kg/injection, vehicle: other) of the same compound?
A: 165 % of control

Q: CCOc1cc2c(cc1C(C)c1ccc(OC)cc1)OCO2 (configuration not stated) was tested. Which T/C (dose: 50.0 mg/kg/injection, vehicle: distilled water + alcohol) did it give?
A: 119 % of control

Q: What about the T/C (dose: 100.0 mg/kg/injection, vehicle: distilled water + alcohol) of the same compound?
A: 110 % of control

Q: And the T/C (dose: 200.0 mg/kg/injection, vehicle: distilled water + alcohol)?
A: 123 % of control

Q: O=C(O)CC(Sc1ccc(Cl)cc1)C(=O)Nc1ccccc1 (configuration not stated) was tested. Which T/C (dose: 31.25 mg/kg/injection, vehicle: saline with Tween-80) did it give?
A: 99 % of control

Q: And the T/C (dose: 62.5 mg/kg/injection, vehicle: saline with Tween-80)?
A: 102 % of control

Q: What about the T/C (dose: 125.0 mg/kg/injection, vehicle: saline with Tween-80) of the same compound?
A: 90 % of control

Q: And the T/C (dose: 500.0 mg/kg/injection, vehicle: saline with Tween-80)?
A: 94 % of control

Q: What does the source list for Cc1cccc(OCC(O)CN2CC2)c1 (configuration not stated)?
A: T/C [1]: 101 % of control and 104 % of control; T/C (dose: 36.0 mg/kg/injection, vehicle: saline with Tween-80): 97 % of control; T/C [2]: 105 % of control and 114 % of control; T/C (dose: 60.0 mg/kg/injection, vehicle: saline with Tween-80): 102 % of control; T/C (dose: 166.66 mg/kg/injection, vehicle: saline with Tween-80): 119 % of control; T/C [3]: 108 % of control; T/C (dose: 277.77 mg/kg/injection, vehicle: saline with Tween-80): 116 % of control

Q: With Cc1c(C(=N)C(C#N)C#N)c(=N)oc2c1ccc1ccccc12 as the compound, how does the T/C [2] read?
A: 96 % of control

Q: What about the T/C [4] of the same compound?
A: 96 % of control

Q: And the T/C [3]?
A: 92 % of control

Q: What about the T/C [5] of the same compound?
A: 94 % of control

Q: And the T/C (dose: 800.0 mg/kg/injection, vehicle: saline with Tween-80)?
A: 93 % of control

Q: How did the T/C (dose: 1.25 mg/kg/injection, vehicle: saline + alcohol) turn out when CC1=C[P+](c2ccccc2)(c2ccccc2)C=C(c2ccccc2)O1 was run?
A: 110 % of control

Q: And the T/C (dose: 5.0 mg/kg/injection, vehicle: saline + alcohol)?
A: 110 % of control

Q: What about the T/C (dose: 10.0 mg/kg/injection, vehicle: saline + alcohol) of the same compound?
A: 117 % of control

Q: Which results are given for CC(=O)C1C(=O)C(=O)N(Cc2ccccc2)C1=O (configuration not stated)?
A: T/C (dose: 46.88 mg/kg/injection, vehicle: Klucel (hydroxypropylcellulose) (HPC)): 98 % of control; T/C (dose: 93.75 mg/kg/injection, vehicle: Klucel (hydroxypropylcellulose) (HPC)): 95 % of control; T/C (dose: 187.5 mg/kg/injection, vehicle: Klucel (hydroxypropylcellulose) (HPC)): 99 % of control; T/C (dose: 375.0 mg/kg/injection, vehicle: Klucel (hydroxypropylcellulose) (HPC)): 98 % of control

Q: CCN(CC)CC(=O)O[C@]1(CC)C(=O)OCc2c1cc1n(c2=O)Cc2cc3ccccc3nc2-1 was tested. Which T/C (dose: 2.0 mg/kg/injection, vehicle: water) did it give?
A: 106 % of control and 110 % of control

Q: And the T/C (dose: 4.0 mg/kg/injection, vehicle: water)?
A: 107 % of control and 108 % of control

Q: What about the T/C (dose: 8.0 mg/kg/injection, vehicle: water) of the same compound?
A: 120 % of control and 124 % of control

Q: With CC1=C(/C=C/C(C)=C/C=C/C(C)=C/C(=O)Nc2ccc(O)cc2)C(C)(C)CCC1 as the compound, how does the T/C [1] read?
A: 97 % of control

Q: What about the T/C [2] of the same compound?
A: 96 % of control

Q: And the T/C [4]?
A: 105 % of control

Q: And the T/C [3]?
A: 95 % of control

Q: What about the T/C [5] of the same compound?
A: 97 % of control

Q: Which T/C (dose: 10.0 mg/kg/injection, vehicle: saline) does the source give for Cc1c2ccccc2cc2cccc[n+]12 here?
A: 100 % of control

Q: And the T/C (dose: 20.0 mg/kg/injection, vehicle: saline)?
A: 96 % of control

Q: What about the T/C (dose: 40.0 mg/kg/injection, vehicle: saline) of the same compound?
A: 96 % of control

Q: How did the T/C (dose: 50.0 mg/kg/injection, vehicle: saline) turn out when CC#CCOCC(O)CCl (configuration not stated) was run?
A: 99 % of control

Q: What about the T/C (dose: 50.0 mg/kg/injection, vehicle: suspension in saline) of the same compound?
A: 102 % of control

Q: And the T/C (dose: 100.0 mg/kg/injection, vehicle: saline)?
A: 98 % of control

Q: And the T/C (dose: 100.0 mg/kg/injection, vehicle: suspension in saline)?
A: 102 % of control

Q: And the T/C (dose: 200.0 mg/kg/injection, vehicle: saline)?
A: 103 % of control

Q: And the T/C (dose: 200.0 mg/kg/injection, vehicle: suspension in saline)?
A: 102 % of control

Q: And the T/C (dose: 400.0 mg/kg/injection, vehicle: suspension in saline)?
A: 100 % of control

Q: For COc1cc([C@@H]2c3cc4c(c(O)c3C[C@H]3COC(=O)[C@@H]32)OCO4)cc(OC)c1OC, which T/C (dose: 4.8 mg/kg/injection, vehicle: suspension in saline) is on record?
A: 159 % of control

Q: And the T/C (dose: 8.0 mg/kg/injection, vehicle: suspension in saline)?
A: 163 % of control

Q: And the T/C (dose: 13.3 mg/kg/injection, vehicle: suspension in saline)?
A: 155 % of control

Q: O=C1c2ccccc2C(=O)c2c1cn1c2Cc2ccccc2C1 was tested. Which T/C (dose: 25.0 mg/kg/injection, vehicle: Klucel (hydroxypropylcellulose) (HPC)) did it give?
A: 90 % of control

Q: And the T/C (dose: 25.0 mg/kg/injection, vehicle: other)?
A: 96 % of control and 102 % of control

Q: What about the T/C (dose: 50.0 mg/kg/injection, vehicle: Klucel (hydroxypropylcellulose) (HPC)) of the same compound?
A: 91 % of control and 93 % of control

Q: And the T/C (dose: 50.0 mg/kg/injection, vehicle: other)?
A: 96 % of control and 103 % of control

Q: And the T/C (dose: 100.0 mg/kg/injection, vehicle: Klucel (hydroxypropylcellulose) (HPC))?
A: 90 % of control

Q: And the T/C (dose: 100.0 mg/kg/injection, vehicle: other)?
A: 106 % of control

Q: And the T/C (dose: 150.0 mg/kg/injection, vehicle: other)?
A: 93 % of control

Q: What about the T/C (dose: 200.0 mg/kg/injection, vehicle: Klucel (hydroxypropylcellulose) (HPC)) of the same compound?
A: 88 % of control

Q: And the T/C (dose: 200.0 mg/kg/injection, vehicle: other)?
A: 97 % of control

Q: And the T/C (dose: 400.0 mg/kg/injection, vehicle: Klucel (hydroxypropylcellulose) (HPC))?
A: 89 % of control and 95 % of control

Q: Which results are given for N#Cc1c(-c2ccc(F)cc2)c(-c2ccc(F)cc2)nn(CCO)c1=O?
A: T/C (dose: 12.5 mg/kg/injection, vehicle: distilled water + Tween-80): 96 % of control and 106 % of control; T/C (dose: 25.0 mg/kg/injection, vehicle: distilled water + Tween-80): 101 % of control and 102 % of control; T/C (dose: 50.0 mg/kg/injection, vehicle: distilled water + Tween-80): 106 % of control and 111 % of control; T/C (dose: 72.0 mg/kg/injection, vehicle: distilled water + Tween-80): 103 % of control; T/C (dose: 100.0 mg/kg/injection, vehicle: distilled water + Tween-80): 120 % of control and 124 % of control; T/C (dose: 120.0 mg/kg/injection, vehicle: distilled water + Tween-80): 115 % of control; T/C (dose: 200.0 mg/kg/injection, vehicle: distilled water + Tween-80): 123 % of control; T/C (dose: 333.0 mg/kg/injection, vehicle: distilled water + Tween-80): 150 % of control; T/C (dose: 555.0 mg/kg/injection, vehicle: distilled water + Tween-80): 153 % of control
